# Data from ChEMBL document CHEMBL2010711, “Synthesis and comparative evaluation of 4-oxa- and 4-aza-podophyllotoxins as antiproliferative microtubule destabilizing agents” (Bioorg Med Chem Lett, 2012).
# Calls of active or inactive are those of the source.
# Experiments:
# [1] = test system: Paracentrotus lividus; assay: Antimitotic activity against Paracentrotus lividus embryo assessed as cleavage alteration at 2 fold less effective threshold concentration after 2.5 to 6 hrs; type: functional, organism-based
# [2] = test system: U-251; assay: Cytotoxicity against human U251 cells after 48 hrs by trypan blue dye exclusion assay; type: functional; details: U-251, 48 h
# [3] = test system: SW-620; assay: Cytotoxicity against human SW620 cells after 48 hrs by trypan blue dye exclusion assay; type: functional; details: SW-620, 48 h
# [4] = test system: BT-549; assay: Cytotoxicity against human BT549 cells after 48 hrs by trypan blue dye exclusion assay; type: functional; details: BT-549, 48 h
# [5] = test system: SNB-19; assay: Cytotoxicity against human SNB19 cells after 48 hrs by trypan blue dye exclusion assay; type: functional; details: SNB-19, 48 h
# [6] = test system: MDA-MB-435; assay: Cytotoxicity against human MDA-MB-435 cells after 48 hrs by trypan blue dye exclusion assay; type: functional; details: MDA-MB-435, 48 h
# [7] = test system: UO-31; assay: Cytotoxicity against human UO31 cells after 48 hrs by trypan blue dye exclusion assay; type: functional; details: UO-31, 48 h
# [8] = test system: SR; assay: Cytotoxicity against human SR cells after 48 hrs by trypan blue dye exclusion assay; type: functional
# [9] = test system: NCI-H522; assay: Cytotoxicity against human NCI-H522 cells after 48 hrs by trypan blue dye exclusion assay; type: functional; details: NCI-H522, 48 h
# [10] = test system: LOX IMVI; assay: Cytotoxicity against human LOXIMVI cells after 48 hrs by trypan blue dye exclusion assay; type: functional
# [11] = test system: OVCAR-3; assay: Cytotoxicity against human OVCAR3 cells after 48 hrs by trypan blue dye exclusion assay; type: functional; details: OVCAR-3, 48 h
# [12] = test system: MOLT-4; assay: Cytotoxicity against human MOLT4 cells after 48 hrs by trypan blue dye exclusion assay; type: functional; details: MOLT-4, 48 h
# [13] = test system: HOP-92; assay: Cytotoxicity against human HOP92 cells after 48 hrs by trypan blue dye exclusion assay; type: functional; details: HOP-92, 48 h
# [14] = test system: MDA-MB-231; assay: Cytotoxicity against human MDA-MB-231 cells after 48 hrs by trypan blue dye exclusion assay; type: functional; details: MDA-MB-231, 48 h
# [15] = test system: RXF 393; assay: Cytotoxicity against human RXF393 cells after 48 hrs by trypan blue dye exclusion assay; type: functional; details: RXF 393, 48 h
# [16] = test system: TK-10; assay: Cytotoxicity against human TK10 cells after 48 hrs by trypan blue dye exclusion assay; type: functional; details: TK-10, 48 h
# [17] = test system: DU-145; assay: Cytotoxicity against human DU145 cells after 48 hrs by trypan blue dye exclusion assay; type: functional; details: DU-145, 48 h
# [18] = test system: NCI-H460; assay: Cytotoxicity against human NCI-H460 cells after 48 hrs by trypan blue dye exclusion assay; type: functional; details: NCI-H460, 48 h
# [19] = test system: OVCAR-8; assay: Cytotoxicity against human OVCAR8 cells after 48 hrs by trypan blue dye exclusion assay; type: functional; details: OVCAR-8, 48 h
# [20] = test system: HCC 2998; assay: Cytotoxicity against human HCC2998 cells after 48 hrs by trypan blue dye exclusion assay; type: functional; details: HCC 2998, 48 h
# [21] = test system: HT-29; assay: Cytotoxicity against human HT-29 cells after 48 hrs by trypan blue dye exclusion assay; type: functional; details: HT-29, 48 h
# [22] = test system: Paracentrotus lividus; assay: Microtubule destabilizing activity in Paracentrotus lividus embryo assessed as concentration required to cause 100% embryo spinning after 15 mins to 20 hrs; type: functional
# [23] = test system: SK-MEL-5; assay: Cytotoxicity against human SK-MEL-5 cells after 48 hrs by trypan blue dye exclusion assay; type: functional; details: SK-MEL-5, 48 h
# [24] = test system: HL-60(TB); assay: Cytotoxicity against human HL-60(TB) cells after 48 hrs by trypan blue dye exclusion assay; type: functional; details: HL-60, 48 h
# [25] = test system: NCI/ADR-RES; assay: Cytotoxicity against human NCI/ADR-RES cells after 48 hrs by trypan blue dye exclusion assay; type: functional
# [26] = test system: KM12; assay: Cytotoxicity against human KM12 cells after 48 hrs by trypan blue dye exclusion assay; type: functional; details: KM12, 48 h
# [27] = test system: OVCAR-5; assay: Cytotoxicity against human OVCAR5 cells after 48 hrs by trypan blue dye exclusion assay; type: functional; details: OVCAR-5, 48 h
# [28] = test system: MDA-MB-468; assay: Cytotoxicity against human MDA-MB-468 cells after 48 hrs by trypan blue dye exclusion assay; type: functional; details: MDA-MB-468, 48 h
# [29] = test system: NCI-H226; assay: Cytotoxicity against human NCI-H226 cells after 48 hrs by trypan blue dye exclusion assay; type: functional; details: NCI-H226, 48 h
# [30] = test system: HCT-15; assay: Cytotoxicity against human HCT15 cells after 48 hrs by trypan blue dye exclusion assay; type: functional; details: HCT-15, 48 h
# [31] = test system: EKVX; assay: Cytotoxicity against human EKVX cells after 48 hrs by trypan blue dye exclusion assay; type: functional
# [32] = test system: A549; assay: Cytotoxicity against human A549 cells after 48 hrs by trypan blue dye exclusion assay; type: functional; details: A549, 48 h
# [33] = test system: SK-MEL-2; assay: Cytotoxicity against human SK-MEL-2 cells after 48 hrs by trypan blue dye exclusion assay; type: functional; details: SK-MEL-2, 48 h
# [34] = test system: A498; assay: Cytotoxicity against human A498 cells after 48 hrs by trypan blue dye exclusion assay; type: functional; details: A498, 48 h
# [35] = test system: Paracentrotus lividus; assay: Antimitotic activity against Paracentrotus lividus embryo assessed as concentration required to cause 100% cleavage arrest after 2.5 to 6 hrs; type: functional
# [36] = test system: NCI-H322M; assay: Cytotoxicity against human NCI-H322M cells after 48 hrs by trypan blue dye exclusion assay; type: functional
# [37] = test system: UACC-62; assay: Cytotoxicity against human UACC62 cells after 48 hrs by trypan blue dye exclusion assay; type: functional; details: UACC-62, 48 h
# [38] = test system: SF-295; assay: Cytotoxicity against human SF295 cells after 48 hrs by trypan blue dye exclusion assay; type: functional; details: SF-295, 48 h
# [39] = test system: NCI-H23; assay: Cytotoxicity against human NCI-H23 cells after 48 hrs by trypan blue dye exclusion assay; type: functional; details: NCI-H23, 48 h
# [40] = test system: Paracentrotus lividus; assay: Microtubule destabilizing activity in Paracentrotus lividus embryo assessed as embryo spinning at 2 fold less effective threshold concentration after 15 mins to 20 hrs; type: functional, organism-based
# [41] = test system: RPMI-8226; assay: Cytotoxicity against human RPMI8226 cells after 48 hrs by trypan blue dye exclusion assay; type: functional; details: RPMI-8226, 48 h
# [42] = test system: CCRF-CEM; assay: Cytotoxicity against human CCRF-CEM cells after 48 hrs by trypan blue dye exclusion assay; type: functional
# [43] = test system: SK-MEL-28; assay: Cytotoxicity against human SK-MEL-28 cells after 48 hrs by trypan blue dye exclusion assay; type: functional; details: SK-MEL-28, 48 h
# [44] = test system: M14; assay: Cytotoxicity against human M14 cells after 48 hrs by trypan blue dye exclusion assay; type: functional; details: M14, 48 h
# [45] = test system: COLO 205; assay: Cytotoxicity against human COLO205 cells after 48 hrs by trypan blue dye exclusion assay; type: functional; details: COLO 205, 48 h
# [46] = test system: SK-OV-3; assay: Cytotoxicity against human SKOV3 cells after 48 hrs by trypan blue dye exclusion assay; type: functional; details: SK-OV-3, 48 h
# [47] = test system: MCF7; assay: Cytotoxicity against human MCF7 cells after 48 hrs by trypan blue dye exclusion assay; type: functional; details: MCF7, 48 h
# [48] = Cytotoxicity against human Hs 578T cells after 48 hrs by trypan blue dye exclusion assay; type: functional
# [49] = test system: SF-268; assay: Cytotoxicity against human SF268 cells after 48 hrs by trypan blue dye exclusion assay; type: functional; details: SF-268, 48 h
# [50] = test system: Paracentrotus lividus; assay: Antimitotic activity against Paracentrotus lividus embryo assessed as concentration required to cause 100% cleavage alteration after 2.5 to 6 hrs; type: functional
# [51] = test system: Paracentrotus lividus; assay: Antimitotic activity against Paracentrotus lividus embryo assessed as cleavage arrest at 2 fold less effective threshold concentration after 2.5 to 6 hrs; type: functional, organism-based
# [52] = test system: SNB-75; assay: Cytotoxicity against human SNB75 cells after 48 hrs by trypan blue dye exclusion assay; type: functional; details: SNB-75, 48 h
# [53] = test system: PC-3; assay: Cytotoxicity against human PC3 cells after 48 hrs by trypan blue dye exclusion assay; type: functional; details: PC-3, 48 h
# [54] = test system: 786-0; assay: Cytotoxicity against human 786-0 cells after 48 hrs by trypan blue dye exclusion assay; type: functional; details: 786-0, 48 h
# [55] = test system: ACHN; assay: Cytotoxicity against human ACHN cells after 48 hrs by trypan blue dye exclusion assay; type: functional
# [56] = test system: CAKI-1; assay: Cytotoxicity against human CAKI-1 cells after 48 hrs by trypan blue dye exclusion assay; type: functional; details: CAKI-1, 48 h
# [57] = test system: IGROV-1; assay: Cytotoxicity against human IGROV1 cells after 48 hrs by trypan blue dye exclusion assay; type: functional; details: IGROV-1, 48 h
# [58] = test system: SF-539; assay: Cytotoxicity against human SF539 cells after 48 hrs by trypan blue dye exclusion assay; type: functional; details: SF-539, 48 h
# [59] = test system: SN12C; assay: Cytotoxicity against human SN12C cells after 48 hrs by trypan blue dye exclusion assay; type: functional
# [60] = test system: OVCAR-4; assay: Cytotoxicity against human OVCAR4 cells after 48 hrs by trypan blue dye exclusion assay; type: functional; details: OVCAR-4, 48 h
# [61] = test system: HCT-116; assay: Cytotoxicity against human HCT116 cells after 48 hrs by trypan blue dye exclusion assay; type: functional; details: HCT-116, 48 h
structure (smiles),measurement,setting,value
COc1ccc2c(c1)OC1=C(C(=O)OC1)C2c1cc(OC)c2c(c1)OCCO2 (stereo unspecified),Activity,[1],inactive
same,GI50,[2],85.1 nM
same,GI50,[3],36.2 nM
same,GI50,[4],131 nM
same,GI50,[5],50.4 nM
same,GI50,[6],19.7 nM
same,GI50,[7],71.3 nM
same,GI50,[8],32.8 nM
same,GI50,[9],37.3 nM
same,GI50,[10],48.5 nM
same,GI50,[11],26.2 nM
same,GI50,[12],81.7 nM
same,GI50,[13],41.6 nM
same,GI50,[14],110 nM
same,GI50,[15],18.7 nM
same,GI50,[16],36500 nM
same,GI50,[17],51.9 nM
same,GI50,[18],> 100000 nM
same,GI50,[19],49.5 nM
same,GI50,[20],75.7 nM
same,GI50,[21],38.4 nM
same,EC,[22],500 nM
same,GI50,[23],32.9 nM
same,GI50,[24],23.2 nM
same,GI50,[25],23.5 nM
same,GI50,[26],42.7 nM
same,GI50,[27],126 nM
same,GI50,[28],23.1 nM
same,GI50,[29],71.2 nM
same,GI50,[30],47.5 nM
same,GI50,[31],68.2 nM
same,GI50,[32],52.3 nM
same,GI50,[33],48.3 nM
same,GI50,[34],23.1 nM
same,EC,[35],50 nM
same,GI50,[36],47.4 nM
same,GI50,[37],39.2 nM
same,GI50,[38],31.5 nM
same,GI50,[39],38.2 nM
same,Activity,[40],inactive
same,GI50,[41],41 nM
same,GI50,[42],31.3 nM
same,GI50,[43],51.7 nM
same,GI50,[44],52.2 nM
same,GI50,[45],30.7 nM
same,GI50,[46],33.3 nM
same,GI50,[47],32.9 nM
same,GI50,[48],30.8 nM
same,GI50,[49],85.1 nM
same,EC,[50],10 nM
same,Activity,[51],inactive
same,GI50,[52],33.7 nM
same,GI50,[53],46.9 nM
same,GI50,[54],61.4 nM
same,GI50,[55],171 nM
same,GI50,[56],36.3 nM
same,GI50,[57],86 nM
same,GI50,[58],29.3 nM
same,GI50,[59],54 nM
same,GI50,[60],236 nM
same,GI50,[61],48.3 nM
